Tests used:
22RV1 cells = experiment: Cell growth inhibition, CellTiter-Glo, 72 h; assay type: cell-based; conditions: Homo sapiens, 72 h culture, mean of N=2
Protocol: (§1) 22RV1, vCap, MM1S and OPM-2 cells were cultured in RPMI-1640 medium (10% fetal bovine serum and 100 units of penicillin/streptomycin dual-antibody per mL were added to RPMI-1640) in a cell incubator at 37°C with 5% CO2, respectively. Cells in logarithmic growth phase were seeded into 96-well cell culture plates at 5×10^3 cells/100 µL/well and cultured overnight. Active compounds dissolved in DMSO at different concentrations were added with a final concentration of 0.5% DMSO. 1% Tween 20 was used as positive control and 0.5% DMSO was used as negative control. After 72 h of culture, an equal volume of CellTiter-Glo was added to each well, mixed by shaking for 2 min, and left standing at room temperature for 10 min. […] signal values were read with a microplate reader. Data were analyzed and graphs were generated using Prism 7.0. The values shown are mean ± SEM (N=2). […] The formula for inhibition rate is as follows: % Inhibition = (Icompound−IZPE)/(IHPE−IZPE) × 100 [formula]
(§2) The X-axis is compound concentration (nM), and the Y-axis is % Inhibition.

vCap cells = experiment: Cell growth inhibition, CellTiter-Glo, 72 h; assay type: cell-based; conditions: Homo sapiens, 72 h culture, mean of N=2
Protocol: as §1, §2

SMILES	IC50 (22RV1 cells)	IC50 (vCap cells)
CC(=O)N1Cc2cc(C3CCN(CCN4CCC(COc5cccc6c5CN(C5CCC(=O)NC5=O)C6=O)CC4)CC3)cc(N3CCCc4cc(-c5cnn(C)c5)c(C(F)F)cc43)c2C1 (stereo not drawn) [Compound 2055]	0.54 nM	0.26 nM
CC(=O)N1Cc2cc(C3CCN(Cc4ccc(CCOc5cccc6c5CN(C5CCC(=O)NC5=O)C6=O)cc4)CC3)cc(N3CCCc4cc(-c5cnn(C)c5)c(C(F)F)cc43)c2C1 (stereo not drawn) [Compound 2003]	0.69 nM	0.19 nM
CNC(=O)N1CCc2cc(C3CCN(C(=O)CCCCCCNc4cccc5c4n(C)c(=O)n5C4CCC(=O)NC4=O)CC3)cc(N3CCCc4cc(-c5cnn(C)c5)c(C(F)F)cc43)c2C1 (stereo not drawn) [Compound 2016, 8-[7-(difluoromethyl)-6-(1-methylpyrazol-4-yl)-3,4-dihydro-2H-quinolin-1-yl)-6-[1-[7-[[1-(2,6-dioxo-3-piperidinyl)-3-methyl-2-oxobenzoimidazol-4-yl]amino]heptanoyl]-4-piperidinyl]-N-methyl-3,4-dihydro-1H-isoquinoline-2-carboxamide]	0.01 nM	< 0.005 nM
CNC(=O)N1CCc2cc(C3CCN(CCN4CCC(CNc5cccc6c5C(=O)N(C5CCC(=O)NC5=O)C6=O)CC4)CC3)cc(N3CCCc4cc(-c5cnn(C)c5)c(C(F)F)cc43)c2C1 (stereo not drawn) [Compound 2021]	0.5 nM	0.545 nM
CC(=O)n1cc2cc(C3CCN(C(=O)CCCCCCOc4ccc5c(c4)n(C)c(=O)n5C4CCC(=O)NC4=O)CC3)cc(N3CCCc4cc(-c5cnn(C)c5)c(C(F)F)cc43)c2c1 (stereo not drawn) [Compound 2029, 3-(5-((7-(4-(2-acetyl-7-(7-(difluoromethyl)-6-(1-methyl-1H-pyrazol-4-yl)-3,4-dihydroquinolin-1(2H)-yl)isoindol-5-yl)piperidin-1-yl)-7-oxoheptyl)oxy)-3-methyl-2-oxo-2,3-dihydro-1H-benzo[d]imidazol-1-yl)piperidine-2,6-dione]	0.04 nM	0.03 nM
CNC(=O)N1CCc2cc(C3CCN(C(=O)CCCCCCCNc4ccc5c(c4)n(C)c(=O)n5C4CCC(=O)NC4=O)CC3)cc(N3CCCc4cc(-c5cnn(C)c5)c(C(F)F)cc43)c2C1 (stereo not drawn) [Compound 2013]	0.01 nM	0.449 nM
CC(=O)N1Cc2cc(C3CCN(CCc4ccc(COc5cccc6c5CN(C5CCC(=O)NC5=O)C6=O)cc4)CC3)cc(N3CCCc4cc(-c5cnn(C)c5)c(C(F)F)cc43)c2C1 (stereo not drawn) [Compound 2031]	0.04 nM	0.21 nM
CC(=O)N1Cc2cc(C3CCN(Cc4ccc(COc5cccc6c5CN(C5CCC(=O)N(CO)C5=O)C6=O)cc4)CC3)cc(N3CCCc4cc(-c5cnn(C)c5)c(C(F)F)cc43)c2C1 (stereo not drawn) [Compound 2053]	1.02 nM	0.36 nM
CNC(=O)N1CCc2cc(C3CCN(CCN4CCOC(CNc5cccc6c5C(=O)N(C5CCC(=O)NC5=O)C6=O)C4)CC3)cc(N3CCCc4cc(-c5cnn(C)c5)c(C(F)F)cc43)c2C1 (stereo not drawn) [Compound 2010]	0.08 nM	0.193 nM
CC(=O)N1Cc2cc(C3CCC(N4C(=O)C=CC4=O)CC3)cc(N3CCCc4cc(-c5cnn(C)c5)c(C(F)F)cc43)c2C1 (stereo not drawn) [Compound 1385, 1-(4-{2-acetyl-7-[7-(difluoromethyl)-6-(1-methylpyrazol-4-yl)-3,4-dihydro-2H-quinolin-1-yl]-1,3-dihydroisoindol-5-yl}cyclohexyl)pyrrole-2,5-dione]	358 nM	144 nM
COC(=O)N1Cc2cc(C3CCN(C(=O)CCOCCOCCOCCOCCNc4ccc5c(c4)C(=O)N(C4CCC(=O)NC4=O)C5=O)CC3)cc(N3CCCc4cc(-c5cnn(C)c5)c(C(F)F)cc43)c2C1 (stereo not drawn) [Compound 2024]	3850 nM	4610 nM
CNC(=O)N1CCc2cc(C3CCN(CC4CCN(CCCc5cccc6c5C(=O)N(C5CCC(=O)NC5=O)C6=O)CC4)CC3)cc(N3CCCc4cc(-c5cnn(C)c5)c(C(F)F)cc43)c2C1 (stereo not drawn) [Compound 2022]	0.3 nM	2.12 nM

Source: patent EP4813980A1, “EP300/CBP REGULATOR, AND PREPARATION METHOD THEREFOR AND USE THEREOF” (Miracure Biotechnology Limited, priority 2023, dated 2025)
